# Experimental data reported in US20200061076A1, “METHODS OF TREATING LEUKODYSTROPHIES” (Ramot at Tel-Aviv University Ltd., priority 2017, published 2020).
# Legend:
# Mut MEFs [1] = assay: JC1 staining of intact and damaged mitochondria (mitochondrial membrane potential); format: cell-based, mouse; settings: Mut MEFs
# Procedure: Mut MEFs were treated or not for 6 hours with the indicated concentrations of p8G5 (blue), pre084 (purple), or NE-100 (yellow), washed and stained with Hoechst and JC1 for 30 minutes followed by image acquisition using In-Cell-Analyzer-2000. Shown is the % of red/green JC1 integrated intensity per cell relative to that in untreated WT cells of 2-4 independent experiments.
# Following, the cells were washed, stained with Hoechst and JC-1 fluorescent dyes for 30 minutes, and subjected to image acquisition using In-Cell-Analyzer-2000. Shown is cellular content of damaged mitochondria (JC1 green channel, red bars), intact mitochondria (JC1 red channel, green bars) and damaged to intact mitochondria ratio (blue bars). Values of control (vehicle treated) cells was set to 100%.
# Mut MEFs were treated with the indicated compounds at 10 μM for 24 hours followed by staining with fluorogenic dyes and image-based single-cell analysis. Shown is average effect on ROS level from at least 3-independent experiments ±SEM. […] Mut MEFs were incubated or not for 24 hours with 10 μM of the indicated compound, washed and stained with Crystal Violet. […] Mut MEFs were incubated or not for 24 hours with 10 μM of the indicated compound, washed and stained with JC1 and Hoechst followed by image-based single-cell analysis. Values of untreated cells were set as 100%. Shown is average of at least 3 independent experiments for each parameter compared to its matching control ±SEM. * p<0.05. Putative targets are indicated.
# Mut MEFs were incubated or not for 24 hours with 10 μM of the indicated compounds, washed and stained with Hoechst and JC1 followed by image-based single-cell analysis. […] Mut MEFs were incubated or not with the indicated concentrations of the indicated compounds for 2 hours followed by addition of 50 ng/ml Tunicamycin (Tun) for additional 22 hours, stained with Crystal Violet followed by measurement of absorbance at 570 nm.
# MEFs were seeded on 1% gelatin-coated 96-wells plate at a density of 5000 cells per well. 24 hours post-plating the cells were incubated with the tested compounds for additional 24 hours. Several DMSO-treated cells (control) were included in each plate at different locations. Following, the cells were stained by addition of fluorogenic dyes for further 30 minutes incubation at 37° C. […] CellROX was used together with Hoechst and CFSE; JC1 was used together with Hoechst. Cells were washed with Hank's balanced salt solution (HBSS) which was used for images acquisition using IN Cell Analyzer 2000 (GE Healthcare, Pitsburgh, Pa., USA). IN Cell Developer Toolbox 1.9.1 software (GE Healthcare) was used for analysis which included cells segmentation using Hoechst and/or CFSE signals. For analysis of JC1 staining, integrated intensity of green and red emissions were used for detection of damaged and intact mitochondria, respectively.
# Mut MEFs [2] = assay: Survival under Tunicamycin-induced ER stress, Crystal Violet, MEFs; settings: 20 μM, 24 hours, Tunicamycin during the last 22 hours (FIGS. 9, 10 and 18)
# Procedure: Mut MEFs were treated or not for 24 hours with the indicated concentrations of the indicated Sig-1R binders in the presence of 0.1 μg/ml Tunicamycin (Tun) during the last 22 hours. Following, the cells were washed, fixated and stained with Crystal Violet (CV) followed by measurement of absorbance at 570 nm. Shown is average % of CV staining relative to cells not treated with tunicamycin nor Sig-1R binder ±SEM of 3 independent experiments. *p<0.03.
# Following, the cells were washed, fixated and stained with Crystal Violet and absorbance at 570 nm was measured. Data is presented relative to cells of the corresponding genotype not treated with p8G5 nor Tunicamycin. Shown is average % of CV staining ±SEM of 3 independent experiments.
# Mut MEFs were treated or not for 24 hours with 10, 20 or 30 μM of the indicated Sig-1R binders in the presence of 50 ng/ml Tunicamycin (Tun) during the last 22 hours. Following, the cells were washed, fixated and stained with Crystal Violet (CV) followed by measurement of absorbance at 570 nm. Shown is % of CV staining relative to cells not treated with tunicamycin nor Sig-1R binder ±SEM of 3 independent experiments, *p<0.05.
# Mut MEFs were incubated or not with the indicated concentrations of the indicated compounds for 2 hours followed by addition of 50 ng/ml Tunicamycin (Tun) for additional 22 hours, stained with Crystal Violet followed by measurement of absorbance at 570 nm. Shown is average normalized to Tun-treated cells without any compound ±SEM of 3 independent experiments. * not significant; ** p<0.02; *** all values p<0.04.
# Sig-1R = Sig-1R (Homo sapiens, UniProt Q99720); assay: Competitive displacement binding assay with [3H]haloperidol (Eurofins); settings: 10 μM compound
# Procedure: Following, the direct binding of p8G5 to Sig-1R, was tested in-vitro by Eurofins labs (www(dot)cerep(dot)fr/cerep/users/pages/catalog/Affiche_CondExp_Test(dot)asp?test=889).
# Mut MEFs [3] = assay: Oxygen consumption (Seahorse XF Cell Mito Stress Test), MEFs; format: cell-based, mouse; settings: for basal and ATP-linked respiration rate per mitochondrial DNA content: 6 hours (FIGS. 8A-B)
# Procedure: Mut MEFs were treated or not for 6 hours with the indicated concentrations of the indicated Sig-1R binders. Oxygen consumption was measured in a XF96 Extracellular Flux Analyzer using the Seahorse XF Cell Mito Stress Test Kit. The Basal respiration (FIG. 7A) and ATP-linked respiration (FIG. 7B) data were normalized to biomass as determined by Crystal Violet staining.
# Mut MEFs were treated or not for 6 hours with the indicated concentrations of the indicated Sig-1R binders. Oxygen consumption was measured in a XF96 Extracellular Flux Analyzer using the Seahorse XF Cell Mito Stress Test Kit. The Basal respiration (FIG. 8A), ATP-linked respiration (FIG. 8B) and maximal respiration (FIG. 8C) data was normalized to mtDNA content as detailed in FIG. 2.
# (§1) The data were normalized to cell number, obtained by Crystal Violet staining, or to mtDNA content.
# Mut primary astrocytes [4] = assay: Oxygen consumption (OCR), primary astrocytes; format: cell-based, mouse; settings: 1 or 10 μm, 6 hours, normalized to cell number (FIGS. 17B-C)
# Procedure: (§2) Shown is average relative quantity (RQ) of 2-6 independent experiments normalized to their untreated controls ±SEM. […] Values of ATP-linked respiration (FIG. 17B) and maximal respiration (FIG. 17C) were analyzed and normalized to cell number.
# as §1
# Mut MEFs [5] = assay: mtDNA quantification (qPCR of mitochondrial 12S rRNA and nuclear 18S rRNA genes), MEFs; format: cell-based, mouse; settings: 0.1 μM-1 μM, 6 hours incubation (FIG. 2)
# Procedure: DNA extracted from WT and Mut MEFs that were treated or not for 6 hours with 0.1 μM, 1 μM or 10 μM of p8G5 (blue), Pre084 (known SIG-1R agonist, purple), pridopidine (known SIG-1R agonists, green) or NE-100 (known SIG-1R antagonist, yellow) was subjected to qPCR analysis of mitochondrial 12S rRNA and nuclear 18S rRNA genes.
# Mut primary astrocytes [6] = assay: mtDNA quantification, primary astrocytes; format: cell-based, mouse; settings: 1 or 10 μm, 6 hours (FIG. 17A)
# Procedure: as §2
# Mut MEFs [7] = assay: TMRE staining, flow cytometry; format: cell-based, mouse; settings: 1 μM, 6 hours (FIGS. 5A-B)
# Procedure: Mut MEFs were treated or untreated with the indicated concentrations of the indicated Sig-1R binders for 6 hours, stained by TMRE for 30 minutes and analyzed by flow cytometry. Shown are flow cytometry histograms and bar graphs representing % mean TMRE fluorescence intensity relative to non-treated WT cells of a representative experiment.
# MEFs were seeded at a density of 4×10^4 cells per well in a 24-wells plate. 24 hours post-plating the cells were incubated with the tested compounds for additional 6 hours followed by staining with 200 nM Tetra-Methyl-Rhodamine-Ethyl esterperchlorate (TMRE) (Abcam) for 30 minutes at 37° C. Cells were removed by trypsinyzation, washed and resuspended in PBS. 5-10×10^3 cells were analyzed by Stratedigm S1000EXi cell sorter and FlowJo software (FLOWJO, LLC, Ashland, Oreg., USA).
# Mut MEFs [8] = assay: Cell survival assay, Crystal violet staining, Mut MEFs; format: cell-based, mouse; settings: for Survival (%) ± SEM Mut MEFs: 24 hours, untreated cells set to 100%
# Procedure: Cells were seeded on 96-wells plate at a density of 5000 cells per well. Astrocytes were seeded following coating with 0.001% PDL.
# Sequence of Sig-1R (Q99720 whole entry): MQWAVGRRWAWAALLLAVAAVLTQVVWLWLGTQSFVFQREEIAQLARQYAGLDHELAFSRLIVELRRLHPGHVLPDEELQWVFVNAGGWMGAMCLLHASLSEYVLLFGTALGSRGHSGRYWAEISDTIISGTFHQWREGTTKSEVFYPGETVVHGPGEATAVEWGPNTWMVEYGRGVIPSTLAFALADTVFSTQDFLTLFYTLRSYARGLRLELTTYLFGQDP
smiles,measurement,setting,value
"Cc1cccc(OCCCCCN2CCOCC2)c1 [H8 (p8G5), 4-[5-(3-methylphenoxy)pentyl]morpholine]",red/green JC1 signal (mitochondria with high to low membrane potential),"Mut MEFs [1]; 1 μM and 10 μM, 6 hours (FIG. 6)",increased the ratio between the content of mitochondria with high to low membrane potential
same,"effect on mitochondrial health (JC1, intact and damaged mitochondria)","Mut MEFs [1]; 10 μM, 24 hours (FIG. 14C)",significant beneficial effect on mitochondrial health
same,survival of Mut MEFs under Tunicamycin ER-stress,Mut MEFs [2],attenuated the apoptotic effect
same,inhibition at 10 µM,Sig-1R,92%
same,maximal respiration rate per mitochondrial content,"Mut MEFs [3]; 1 μM, 6 hours (FIG. 8C)",increased the maximal respiration capacity per mitochondria to the level of untreated WT cells
same,basal and ATP-linked respiration rate per mitochondrial DNA content,Mut MEFs [3]; 1 μM,brought both parameters to WT levels
same,basal and ATP-linked respiration rate per mitochondrial DNA content,Mut MEFs [3],statistically significant increase
same,basal respiration and ATP-linked respiration per cell (OCR),"Mut MEFs [3]; 6 hours, normalized to biomass (FIGS. 7A-B)",no effect
same,ATP-linked and maximal respiration in mutant astrocytes,Mut primary astrocytes [4],increased both ATP-linked and maximal respiration
same,mitochondrial content in Mut MEFs,Mut MEFs [5],lowered the abnormal high mitochondrial content
same,mitochondrial content per cell in astrocytes,Mut primary astrocytes [6],no effect on mitochondrial content per cell
same,TMRE staining (mitochondrial membrane potential),Mut MEFs [7],increased TMRE staining to a level above that of untreated WT cells
same,Survival (%) ± SEM Mut MEFs,Mut MEFs [8]; 0.1 μM,104 ± 4.6%
same,Survival (%) ± SEM Mut MEFs,Mut MEFs [8]; 1 μM,102 ± 3.3%
same,Survival (%) ± SEM Mut MEFs,Mut MEFs [8]; 10 μM,99 ± 2.6%
same,Survival (%) ± SEM Mut MEFs,Mut MEFs [8]; 30 μM,105 ± 13%
same,effect on survival of Mut cells,"Mut MEFs [8]; as high as 30 μM (FIG. 4, Table 3)",did not have any negative effect on the survival
